Measured values published in US8653263B2 (Janssen Pharmaceutica, priority 2009, dated 2014).

Each compound was assayed against human orexin-2 receptor (Homo sapiens (Human), UniProt O43614) (assay: Human orexin 2 receptor radioligand binding ([3H]-EMPA competition)). Conditions: HEK293 cells stably expressing human orexin-2 receptor; [3H]-EMPA 5 nM final; apparent Ki=IC50/(1+C/Kd), Kd=2 nM; read-out: OR 2 Ki.
Chain of human orexin-2 receptor (O43614 whole entry): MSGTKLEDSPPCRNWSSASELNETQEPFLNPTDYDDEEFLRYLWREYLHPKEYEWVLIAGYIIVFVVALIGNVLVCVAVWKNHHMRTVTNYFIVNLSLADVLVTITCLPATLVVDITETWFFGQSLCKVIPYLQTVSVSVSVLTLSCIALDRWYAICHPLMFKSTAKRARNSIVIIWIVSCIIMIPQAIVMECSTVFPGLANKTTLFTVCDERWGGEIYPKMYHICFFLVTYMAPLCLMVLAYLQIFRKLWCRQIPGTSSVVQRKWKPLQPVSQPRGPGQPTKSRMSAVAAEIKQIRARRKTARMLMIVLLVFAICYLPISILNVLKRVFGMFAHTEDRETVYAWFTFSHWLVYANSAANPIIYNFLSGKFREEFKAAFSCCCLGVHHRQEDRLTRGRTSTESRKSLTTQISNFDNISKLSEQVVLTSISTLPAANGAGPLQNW
Work on `Cc1cc(C)nc(N2CC3CN(C(=O)c4c(C)cccc4Cl)CC3C2)n1` (stereo not shown) [Example 230, 2-[(2-Chloro-6-methylphenyl)carbonyl]-5-(4,6-dimethylpyrimidin-2-yl)octahydropyrrolo[3,4-c]pyrrole] yielded a Ki of 0.254 µM.
`Cc1cc(C)nc(N2CC3CN(C(=O)c4ccc(F)cc4-c4ncccn4)CC3C2)n1` (stereo not shown) [Example 231, (5-(4,6-Dimethylpyrimidin-2-yl)hexahydropyrrolo[3,4-c]pyrrol-2(1H)-yl)(4-fluoro-2-(pyrimidin-2-yl)phenyl)methanone] showed a Ki of 0.068 µM.
For `Cc1cc(C)nc(N2CC3CN(C(=O)c4cccc(F)c4I)CC3C2)n1` (stereo not shown) [Example 232, (5-(4,6-Dimethylpyrimidin-2-yl)hexahydropyrrolo[3,4-c]pyrrol-2(1H)-yl)(3-fluoro-2-iodophenyl)methanone], the Ki was 0.052 µM.
In the case of `Cc1cc(C)nc(N2CC3CN(C(=O)c4cccnc4C(F)(F)F)CC3C2)n1` (stereo not shown) [Example 233, 2-(4,6-Dimethylpyrimidin-2-yl)-5-{[2-(trifluoromethyl)pyridin-3-yl]carbonyl}octahydropyrrolo[3,4-c]pyrrole], the Ki is reported as 2.1 µM.
In the case of `Cc1cc(C)nc(N2CC3CN(C(=O)c4cccnc4Br)CC3C2)n1` (stereo not shown) [Example 234], the Ki is reported as 10 µM.
With `Cc1cc(C)nc(N2CC3CN(C(=O)c4cccnc4-c4ncccn4)CC3C2)n1` (stereo not shown) [Example 235, (5-(4,6-Dimethylpyrimidin-2-yl)hexahydropyrrolo[3,4-c]pyrrol-2(1H)-yl)(2-(pyrimidin-2-yl)pyridin-3-yl)methanone] the Ki was 0.56 µM.
Compound `Cc1cc(C)nc(N2CC3CN(C(=O)c4cccnc4-c4ccnn4C4CCCCO4)CC3C2)n1` (stereo not shown) [Example 236, (5-(4,6-Dimethylpyrimidin-2-yl)hexahydropyrrolo[3,4-c]pyrrol-2(1H)-yl)(2-(1-(tetrahydro-2H-pyran-2-yl)-1H-pyrazol-5-yl)pyridin-3-yl)methanone] has a Ki of 10 µM.
With `Cc1cc(C)nc(N2CC3CN(C(=O)c4cccnc4-c4ccn[nH]4)CC3C2)n1` (stereo not shown) [Example 237, (2-(1H-Pyrazol-5-yl)pyridin-3-yl)(5-(4,6-dimethylpyrimidin-2-yl)hexahydropyrrolo[3,4-c]pyrrol-2(1H)-yl)methanone] the Ki was 0.069 µM.
Compound `Cc1nc(N2CC3CN(C(=O)c4cccc(F)c4-c4ncccn4)CC3C2)nc(C)c1C` (stereo not shown) [Example 239, (3-Fluoro-2-(pyrimidin-2-yl)phenyl)(5-(4,5,6-trimethylpyrimidin-2-yl)hexahydropyrrolo[3,4-c]pyrrol-2(1H)-yl)methanone] has a Ki of 0.007 µM.
`Cc1nc(N2CC3CN(C(=O)c4cccc(F)c4-n4nccn4)CC3C2)nc(C)c1C` (stereo not shown) [Example 240, (3-Fluoro-2-(2H-1,2,3-triazol-2-yl)phenyl)(5-(4,5,6-trimethylpyrimidin-2-yl)hexahydropyrrolo[3,4-c]pyrrol-2(1H)-yl)methanone] showed a Ki of 0.007 µM.
`COc1ccc(-n2nccn2)c(C(=O)N2CC3CN(c4nc(C)c(C)c(C)n4)CC3C2)c1` (stereo not shown) [Example 241, (5-Methoxy-2-(2H-1,2,3-triazol-2-yl)phenyl)(5-(4,5,6-trimethylpyrimidin-2-yl)hexahydropyrrolo[3,4-c]pyrrol-2(1H)-yl)methanone] gave a Ki of 0.017 µM.
`O=C(c1cccc(F)c1-n1nccn1)N1CC2CN(c3ncc4cc(F)ccc4n3)CC2C1` (stereo not shown) [Example 242, (3-Fluoro-2-(2H-1,2,3-triazol-2-yl)phenyl)(5-(6-fluoroquinazolin-2-yl)hexahydropyrrolo[3,4-c]pyrrol-2(1H)-yl)methanone] was tested, and the Ki was 0.039 µM.
`O=C(c1cccc(F)c1-c1ncccn1)N1CC2CN(c3ncc4cc(F)ccc4n3)CC2C1` (stereo not shown) [Example 243, (3-Fluoro-2-(pyrimidin-2-yl)phenyl)(5-(6-fluoroquinazolin-2-yl)hexahydropyrrolo[3,4-c]pyrrol-2(1H)-yl)methanone] showed a Ki of 0.016 µM.
Work on `COc1ccc(-n2nccn2)c(C(=O)N2CC3CN(c4cnc5cc(F)c(F)cc5n4)CC3C2)c1` (stereo not shown) [Example 245, (5-(6,7-Difluoroquinoxalin-2-yl)hexahydropyrrolo[3,4-c]pyrrol-2(1H)-yl)(5-methoxy-2-(2H-1,2,3-triazol-2-yl)phenyl)methanone] yielded a Ki of 0.058 µM.
Compound `O=C(c1c(F)cccc1-n1nccn1)N1CC2CN(c3cnc4cc(F)c(F)cc4n3)CC2C1` (stereo not shown) [Example 246, (5-(6,7-Difluoroquinoxalin-2-yl)hexahydropyrrolo[3,4-c]pyrrol-2(1H)-yl)(2-fluoro-6-(2H-1,2,3-triazol-2-yl)phenyl)methanone] has a Ki of 0.011 µM.
`O=C(c1cccc(F)c1Br)N1CC2CN(c3ncc4cc(F)ccc4n3)CC2C1` (stereo not shown) [Example 247, (2-Bromo-3-fluorophenyl)(5-(6-fluoroquinazolin-2-yl)hexahydropyrrolo[3,4-c]pyrrol-2(1H)-yl)methanone] gave a Ki of 0.65 µM.
Work on `Cc1ccc(-c2cc(F)ccc2C(=O)N2CC3CN(c4nc(C)cc(C)n4)CC3C2)nc1` (stereo not shown) [Example 248, (5-(4,6-dimethylpyrimidin-2-yl)hexahydropyrrolo[3,4-c]pyrrol-2(1H)-yl)(4-fluoro-2-(5-methylpyridin-2-yl)phenyl)methanone] yielded a Ki of 0.17 µM.
`Cc1cc(N2CC3CN(C(=O)c4nc(C)sc4-c4ccc(F)cc4)CC3C2)nc(C)n1` (stereo not shown) [Example 253, 2-(2,6-Dimethylpyrimidin-4-yl)-5-{[5-(4-fluorophenyl)-2-methyl-1,3-thiazol-4-yl]carbonyl}octahydropyrrolo[3,4-c]pyrrole] showed a Ki of 5 µM.
In the case of `Cc1cc(C)nc(N2CC3CN(C(=O)c4nc(C)sc4-c4ccc(F)cc4)CC3C2)n1` (stereo not shown) [Example 254, 2-(4,6-Dimethylpyrimidin-2-yl)-5-{[5-(4-fluorophenyl)-2-methyl-1,3-thiazol-4-yl]carbonyl}octahydropyrrolo[3,4-c]pyrrole], the Ki is reported as 2.2 µM.
`Cc1nc(=O)cc(N2CC3CN(C(=O)c4nc(C)sc4-c4ccc(F)cc4)CC3C2)[nH]1` (stereo not shown) [Example 255, 6-[5-{[5-(4-Fluorophenyl)-2-methyl-1,3-thiazol-4-yl]carbonyl}hexahydropyrrolo[3,4-c]pyrrol-2(1H)-yl]-2-methylpyrimidin-4(3H)-one] was tested, and the Ki was 10 µM.
With `O=C(O)c1cnc(N2CC3CN(C(=O)c4c(F)cccc4-n4nccn4)CC3C2)nc1C(F)(F)F` (stereo not shown) [Example 263, 2-(5-(2-Fluoro-6-(2H-1,2,3-triazol-2-yl)benzoyl)hexahydropyrrolo[3,4-c]pyrrol-2(1H)-yl)-4-(trifluoromethyl)pyrimidine-5-carboxylic acid] the Ki was 10 µM.
`Cc1cc(C(=O)O)nc(N2CC3CN(C(=O)c4c(F)cccc4-n4nccn4)CC3C2)n1` (stereo not shown) [Example 265, 2-(5-(2-Fluoro-6-(2H-1,2,3-triazol-2-yl)benzoyl)hexahydropyrrolo[3,4-c]pyrrol-2(1H)-yl)-6-methylpyrimidine-4-carboxylic acid] gave a Ki of 9 µM.
Compound `Cc1cc(C)nc(N2CC3CN(C(=O)c4cccc(C)c4-n4ccnn4)CC3C2)n1` (stereo not shown) [Example 267, (5-(4,6-Dimethylpyrimidin-2-yl)hexahydropyrrolo[3,4-c]pyrrol-2(1H)-yl)(3-methyl-2-(1H-1,2,3-triazol-1-yl)phenyl)methanone] has a Ki of 10 µM.
`Cc1cc(C)c(C(=O)N2CC3CN(c4nc(C)cc(C)n4)CC3C2)c(C)c1` (stereo not shown) [Example 270, (5-(4,6-Dimethylpyrimidin-2-yl)hexahydropyrrolo[3,4-c]pyrrol-2(1H)-yl)(mesityl)methanone] showed a Ki of 1.03 µM.
`Cc1cc(C)nc(N2CC3CN(C(=O)c4cccc(F)c4F)CC3C2)n1` (stereo not shown) [Example 271, (2,3-Difluorophenyl)(5-(4,6-dimethylpyrimidin-2-yl)hexahydropyrrolo[3,4-c]pyrrol-2(1H)-yl)methanone] showed a Ki of 5 µM.
`COc1ccc(C(=O)N2CC3CN(c4nc(C)cc(C)n4)CC3C2)c(-c2ncccn2)c1` (stereo not shown) [Example 272, (5-(4,6-Dimethylpyrimidin-2-yl)hexahydropyrrolo[3,4-c]pyrrol-2(1H)-yl)(4-methoxy-2-(pyrimidin-2-yl)phenyl)methanone] was tested, and the Ki was 0.033 µM.
`COc1cccc(C(=O)N2CC3CN(c4nc(C)cc(C)n4)CC3C2)c1OC` (stereo not shown) [Example 273, (2,3-Dimethoxyphenyl)(5-(4,6-dimethylpyrimidin-2-yl)hexahydropyrrolo[3,4-c]pyrrol-2(1H)-yl)methanone] gave a Ki of 5 µM.
With `Cc1cc(C)nc(N2CC3CN(C(=O)c4ccccc4OC(F)(F)F)CC3C2)n1` (stereo not shown) [Example 274, (5-(4,6-Dimethylpyrimidin-2-yl)hexahydropyrrolo[3,4-c]pyrrol-2(1H)-yl)(2-(trifluoromethoxy)phenyl)methanone] the Ki was 0.061 µM.
With `COc1cc(C)ccc1C(=O)N1CC2CN(c3nc(C)cc(C)n3)CC2C1` (stereo not shown) [Example 276, (5-(4,6-Dimethylpyrimidin-2-yl)hexahydropyrrolo[3,4-c]pyrrol-2(1H)-yl)(2-methoxy-4-methylphenyl)methanone] the Ki was 2.95 µM.
`COc1ccc(C(=O)N2CC3CN(c4nc(C)cc(C)n4)CC3C2)c(C)c1` (stereo not shown) [Example 277, (5-(4,6-Dimethylpyrimidin-2-yl)hexahydropyrrolo[3,4-c]pyrrol-2(1H)-yl)(4-methoxy-2-methylphenyl)methanone] showed a Ki of 0.68 µM.
Work on `Cc1cc(C)nc(N2CC3CN(C(=O)c4c(F)cccc4F)CC3C2)n1` (stereo not shown) [Example 278, (2,6-Difluorophenyl)(5-(4,6-dimethylpyrimidin-2-yl)hexahydropyrrolo[3,4-c]pyrrol-2(1H)-yl)methanone] yielded a Ki of 2.27 µM.
Work on `Cc1cc(C)nc(N2CC3CN(C(=O)c4cccc(F)c4-c4ncccn4)CC3C2)n1` (stereo not shown) [Example 283, 2-(4,6-Dimethylpyrimidin-2-yl)-5-[(3-fluoro-2-pyrimidin-2-ylphenyl)carbonyl]octahydropyrrolo[3,4-c]pyrrole] yielded a Ki of 0.01 µM.
`Cc1cc(C)nc(N2CC3CN(C(=O)c4cccc(F)c4-c4ccn[nH]4)CC3C2)n1` (stereo not shown) [Example 284, 2-(4,6-Dimethylpyrimidin-2-yl)-5-{[3-fluoro-2-(1H-pyrazol-5-yl)phenyl]carbonyl}octahydropyrrolo[3,4-c]pyrrole] showed a Ki of 0.008 µM.

Same assay, conditions: read-out: OR 2 Ki
With `Cc1nc(N2CC3CN(C(=O)c4c(F)cccc4-n4nccn4)CC3C2)cc(=O)[nH]1` (stereo not shown) [Example 252, 6-[5-{[2-Fluoro-6-(2H-1,2,3-triazol-2-yl)phenyl]carbonyl}hexahydropyrrolo[3,4-c]pyrrol-2(1H)-yl]-2-methylpyrimidin-4(3H)-one] the Ki was no less than 10 µM.
